One test concerns human MaTu breast tumor cells. Briefly: Proliferation assay (crystal violet staining). The format is cell-based. Particulars: 96 h, incubated for 4 days with test substances, read-out: Inhibition of the Tumor Cell Proliferation (MaTu) IC50. On the procedure: Cultivated human MaTu breast tumor cells were flattened out at a density of 5000 cells/measuring point in a 96-well multititer plate in […] of the corresponding growth medium. After 24 hours, the cells of one plate (zero-point plate) were colored with crystal violet (see below), while the medium of the other plates was replaced by fresh culture medium […], to which the test substances were added in various concentrations (0 μm, as well as in the range of 0.01-30 μm; the final concentration of the solvent dimethyl sulfoxide was 0.5%). The cells were incubated for 4 days in the presence of test substances. The cell proliferation was determined by coloring the cells with crystal violet: the cells were fixed by adding 20 μl/measuring point of an 11% glutaric aldehyde solution for 15 minutes at room temperature. After three washing cycles of the fixed cells with water, the plates were dried at room temperature. The cells were colored by adding 100 μl/measuring point of a 0.1% crystal violet solution (pH was set at 3 by adding acetic acid). After three washing cycles of the colored cells with water, the plates were dried at room temperature. The dye was dissolved by adding 100 μl/measuring point of a 10% acetic acid solution. The extinction was determined by photometry at a wavelength of 595 nm. The change of cell growth, in percent, was calculated by standardization of the measured values to the extinction values of the zero-point plate (=0%) and the extinction of the untreated (0 μm) cells (=100%).
T1 sequence (P53350 whole entry): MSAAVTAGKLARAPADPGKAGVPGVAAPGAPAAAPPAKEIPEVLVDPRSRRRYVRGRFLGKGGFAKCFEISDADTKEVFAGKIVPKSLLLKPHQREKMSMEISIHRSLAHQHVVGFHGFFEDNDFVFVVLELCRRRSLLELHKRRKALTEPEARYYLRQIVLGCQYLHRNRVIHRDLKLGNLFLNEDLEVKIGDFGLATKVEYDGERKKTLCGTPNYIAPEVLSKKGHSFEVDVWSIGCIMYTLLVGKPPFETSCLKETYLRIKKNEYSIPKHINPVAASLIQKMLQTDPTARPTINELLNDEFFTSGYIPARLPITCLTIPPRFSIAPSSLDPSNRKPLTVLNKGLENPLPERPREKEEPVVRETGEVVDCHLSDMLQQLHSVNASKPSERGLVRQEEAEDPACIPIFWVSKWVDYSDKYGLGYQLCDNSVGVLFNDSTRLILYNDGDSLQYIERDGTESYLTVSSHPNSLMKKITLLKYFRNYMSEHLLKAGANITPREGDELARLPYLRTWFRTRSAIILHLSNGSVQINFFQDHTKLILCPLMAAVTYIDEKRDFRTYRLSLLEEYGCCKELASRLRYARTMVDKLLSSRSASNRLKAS
Turning to `CCOC(=O)C(C#N)=c1sc(=CN)c(=O)n1CC` (mixture of isomers) [Example 11, (E or Z)-(5-(E/Z)-Aminomethylene-3-ethyl-4-oxo-thiazolidin-2-ylidene)-cyanoacetic acid ethyl ester], the IC50 was 15000 nM.
Turning to `CCOC(=O)C(C#N)=c1sc(=CNc2ccc(C(N)=O)cc2)c(=O)n1CC` (mixture of isomers) [Example 10, (E or Z)-{5-(E/Z)-[(4-Carbamoyl-phenylamino)-methylene]-3-ethyl-4-oxo-thiazolidin-2-ylidene}-cyanoacetic acid ethyl ester], the IC50 was 4000 nM.
For the compound `CCn1c(=C(C#N)C(=O)O)sc(=CNc2ccccc2)c1=O` (mixture of isomers) [Example 12, (E or Z)-Cyano-(3-ethyl-4-oxo-5-(E/Z)-phenylaminomethylene-thiazolidin-2-ylidene)-acetic acid], the IC50 amounted to 2000 nM.

A further test addresses T1, Recombinant human Plk-1 (6×His) (Homo sapiens, UniProt P53350).
T1 construct: 6×His; made in house; host or cells: baculovirus-infected insect cells (Hi5)
Description: PLK enzyme assay (33P-γ-ATP incorporation into biotinylated casein, SPA beads). The format is biochemical. Particulars: 10 ng PLK enzyme, 90 minutes at room temperature, 0.5 μmol of ATP, casein substrate; read-out: Inhibition of PLK-1 IC50. As to the method:
Recombinant human Plk-1 (6×His) was purified from baculovirus-infected insect cells (Hi5).
10 ng of (produced in a recombinant manner and purified) PLK enzyme is incubated for 90 minutes at room temperature with biotinylated casein and 33P-γ-ATP as a substrate in a volume of 15 μl in 384-well Greiner small-volume microtiter plates (final concentrations in the buffer: 660 ng/ml of PLK; 0.7 μmol of casein, 0.5 μmol of ATP incl. 400 nCi/ml of 33P-γ-ATP; 10 mmol of MgCl2, 1 mmol of MnCl2; 0.01% NP40; 1 mmol of DTT, protease inhibitors; 0.1 mmol of Na2VO3 in 50 mmol of HEPES, pH 7.5). To complete the reaction, 5 μl of stop solution (500 μmol of ATP; 500 mmol of EDTA; 1% Triton X100; 100 mg/ml of streptavidin-coated SPA beads in PBS) is added. After the microtiter plate is sealed by film, the beads are sedimented by centrifuging (10 minutes, 1500 rpm). The incorporation of 33P-γ-ATP in casein is intended as a measurement of enzyme activity by β-counting.
Test substances are used in various concentrations (0 μmol, as well as in the range of 0.01-30 μmol). The final concentration of the solvent dimethyl sulfoxide is 1.5% in all batches.
As to `CCOC(=O)C(C#N)=c1sc(=CNc2cc(C(=O)O)ccc2O)c(=O)n1CC` [Example 28], the IC50 was determined as 2300 nM.
`CCOC(=O)C(C#N)=c1sc(=CNc2ccc(NC(C)=O)cc2)c(=O)n1CC` [Example 58]: the IC50 worked out at 270 nM.
As for `CCOC(=O)C(C#N)=c1sc(=CNc2ccc(C)cc2C(=O)O)c(=O)n1CC` [Example 38], the IC50 is 3000 nM.
On the same count and under the same terms, as for `CCOC(=O)C(C#N)=c1sc(=CNc2ccc(Br)cc2C(=O)O)c(=O)n1CC` [Example 36], the figure is 1800 nM; as for `CCOC(=O)C(C#N)=c1sc(=CN)c(=O)n1CC` (mixture of isomers) [Example 11, (E or Z)-(5-(E/Z)-Aminomethylene-3-ethyl-4-oxo-thiazolidin-2-ylidene)-cyanoacetic acid ethyl ester], 400 nM; as for `CCOC(=O)C(C#N)=c1sc(=CNc2ccc(S(N)(=O)=O)cc2)c(=O)n1CC` [Example 50], 240 nM.
Turning to `CCOC(=O)C(C#N)=c1sc(=CNc2cccc(S(N)(=O)=O)c2)c(=O)n1CC` [Example 53], the IC50 turned out to be 460 nM.
With `CCOC(=O)C(C#N)=c1sc(=CNc2ccc(F)cc2C(=O)O)c(=O)n1CC` [Example 35], the IC50 worked out at 2800 nM.
For the compound `CCOC(=O)C(C#N)=c1sc(=CNc2ccc(C(=O)O)cc2O)c(=O)n1CC` [Example 30], the IC50 is 250 nM.
In the case of `CCOC(=O)C(C#N)=c1sc(=CNc2cc(Cl)ccc2C(=O)O)c(=O)n1CC` [Example 32], the IC50 was 1700 nM.
As to `CCOC(=O)C(C#N)=c1sc(=CNc2cccc(C(=O)NC)c2)c(=O)n1CC` [Example 52], the IC50 is 260 nM.
For `CCOC(=O)C(C#N)=c1sc(=CNc2cc(F)c(F)cc2C(=O)O)c(=O)n1CC` [Example 37], the IC50 is 3500 nM.
With `CCOC(=O)C(C#N)=c1sc(=CNc2cccc(CO)c2)c(=O)n1CC` [Example 60], the IC50 worked out at 290 nM.
On the same count and under the same terms, as for `CCOC(=O)C(C#N)=c1sc(=CNc2cccc(NC(C)=O)c2)c(=O)n1CC` [Example 59], the figure is 180 nM.
In the case of `CCOC(=O)C(C#N)=c1sc(=CNc2ccc(Cl)c(C(=O)O)c2)c(=O)n1CC` [Example 33], the IC50 turned out to be 420 nM.
Turning to `CCOC(=O)C(C#N)=c1sc(=CNc2ccccc2C(=O)O)c(=O)n1CC` [Example 26], the IC50 was found to be 6300 nM.
For `CCOC(=O)C(C#N)=c1sc(=CNC(=O)Nc2ccccc2)c(=O)n1CC` [Example 45], the IC50 is 680 nM.
As to `CCOC(=O)C(C#N)=c1sc(=CNc2ccc(S(C)(=O)=O)cc2)c(=O)n1CC` [Example 22], the IC50 stood at 510 nM.
`CCOC(=O)C(C#N)=c1sc(=CNc2ccc(Cl)cc2C(=O)O)c(=O)n1CC` [Example 31]: the IC50 was 1900 nM.
Still for that read-out and setting: as for `CCOC(=O)C(C#N)=c1sc(=CNc2cccc(C(N)=O)c2)c(=O)n1CC` [Example 48], the figure is 270 nM; as for `CCOC(=O)C(C#N)=c1sc(=CNc2cccc(C)c2C(=O)O)c(=O)n1CC` [Example 39], 5900 nM; as for `CCOC(=O)C(C#N)=c1sc(=CNc2cccc(C(=O)O)c2)c(=O)n1CC` [Example 24], 230 nM.
For the compound `CCOC(=O)C(C#N)=c1sc(=CNc2ccc(C(=O)O)cc2C)c(=O)n1CC` [Example 40], the IC50 stood at 1700 nM.
Consider `CCn1c(=CC#N)sc(=CNc2ccccc2)c1=O` (mixture of isomers) [Example 21, (E or Z)-(3-Ethyl-4-oxo-5-(E/Z)-phenylaminomethylene-thiazolidin-2-ylidene)-acetonitrile], for which the IC50 came to 230 nM.
The same measure, in the same setting: the figure for `CCOC(=O)C(C#N)=c1sc(=CNc2ccc(C(N)=O)cc2)c(=O)n1CC` (mixture of isomers) [Example 10, (E or Z)-{5-(E/Z)-[(4-Carbamoyl-phenylamino)-methylene]-3-ethyl-4-oxo-thiazolidin-2-ylidene}-cyanoacetic acid ethyl ester] is 200 nM; for `CCn1c(=C(C#N)C(=O)O)sc(=CNc2ccccc2)c1=O` (mixture of isomers) [Example 12, (E or Z)-Cyano-(3-ethyl-4-oxo-5-(E/Z)-phenylaminomethylene-thiazolidin-2-ylidene)-acetic acid] it is 100 nM.
